In article PMC2876208 (Cancer, 2010):
Counter-ions that a name gives are not always drawn.

What was measured:
CML = settings: newly diagnosed patients with CML-CP; cited from earlier work
[1] = cited from earlier work
Ph-positive CML or ALL = test: Phase 1 study: cytogenetic and hematologic response; format: in vivo, human
Lyn kinase = settings: cited from earlier work
Bcr-Abl F317V = settings: cited from earlier work
unmutated Bcr-Abl = settings: cited from earlier work
[2] = Phase 1 study: pharmacokinetics in patients; format: in vivo, human; settings: for half-life: Mean half-life
[3] = Phase 1 dose-escalation study: safety, adverse events; format: in vivo
Bcr-Abl F317L = settings: cited from earlier work
[4] = 30 mg/kg dose level, 4-week; ref data on file, 24; cited from earlier work
[5] = target: other Src-family member kinases; settings: cited from earlier work

## Cc1ccc(NC(=O)c2ccc(CN3CCN(C)CC3)cc2)cc1Nc1nccc(-c2cccnc2)n1 [imatinib, imatinib mesylate]
CML
  Estimated 5 to 7-year survival rates: over 90%

## Cc1ccc(NC(=O)c2ccc(CN3CC[C@H](N(C)C)C3)c(C(F)(F)F)c2)cc1Nc1nccc(-c2cncnc2)n1 [INNO-406]
[1]
  In vivo potency relative to imatinib: at least 10 times
Ph-positive CML or ALL; 60 mg QD, N = 3
  Minimal-Minor Cytogenetic Response: 1 (33) n (%)
Ph-positive CML or ALL; 120 mg BID, N = 6
  Complete Cytogenetic Response: 1 (17) n (%)
Ph-positive CML or ALL; 120 mg QD, N = 6
  Complete Cytogenetic Response: 1 (17) n (%)
Ph-positive CML or ALL; 240 mg BID, N = 17
  Complete Cytogenetic Response: 1 (6) n (%)
  Partial Cytogenetic Response: 2 (12) n (%)
Ph-positive CML or ALL; 360 mg BID, N = 7
  Minimal-Minor Cytogenetic Response: 1 (14) n (%)
Ph-positive CML or ALL; 480 mg BID, N = 5
  Partial Cytogenetic Response: 1 (20) n (%)
Ph-positive CML or ALL; 4 patients with T315I mutations
  Response in patients with T315I mutations: None
Ph-positive CML or ALL; Total, all doses, N = 56
  Complete Cytogenetic Response: 3 (5) n (%)
  Minimal-Minor Cytogenetic Response: 2 (4) n (%)
  Partial Cytogenetic Response: 3 (5) n (%)
Ph-positive CML or ALL; all doses
  Complete and partial hematologic responses: 3 patients
Ph-positive CML or ALL; all patients enrolled (6 of 56 patients)
  Major cytogenetic response rate: 11%
Ph-positive CML or ALL; patients treated with doses of 240 mg BID or greater
  Major cytogenetic responses: 4
Ph-positive CML or ALL; patients with CML-AP, CML-BP, or Ph-positive ALL
  Responses: No responses
Ph-positive CML or ALL; patients with CML-CP (6 of 31 patients)
  Major cytogenetic response rate: 19%
Ph-positive CML or ALL; patients with CML-CP, all doses
  Major cytogenetic responses: 6 patients
Lyn kinase
  Kinase activity: specific Lyn kinase activity
Bcr-Abl F317V
  Sensitivity of mutation in vitro: sensitive
Unmutated Bcr-Abl
  Inhibition of autophosphorylation relative to imatinib: more potently inhibited
[2]; 240 mg BID cohort, SD = 0.5
  Mean time to achieve peak concentration: 1.3 h
[2]; BID dosing
  Mean (SD) accumulation factor: 2.73 (4.96)
[2]; day 15, 360 and 480 mg BID cohorts
  Accumulation: accumulation of INNO-406 was observed
[2]; entire study population, for AUC not demonstrable with BID dosing
  Dose proportionality of Cmax and AUC: dose proportional
[2]; human, in vivo, oral, 240 mg
  Cmax: 487 ng/mL
[2]; human, in vivo, oral, BID dosing, day 1, SD 0.817
  half-life: 1.99 h
[2]; human, in vivo, oral, BID dosing, day 15, SD 0.751
  half-life: 2.28 h
[3]; % of patients, N = 56
  Adverse events, NCI category infection: 33.9%
[3]; all related to leukemia progression
  Deaths since beginning treatment: Five
[3]; human, in vivo
  Adverse events, NCI category blood/bone marrow: 25.0%
  Adverse events, NCI category cardiac general: 12.5%
  Adverse events, NCI category constitutional symptoms: 48.2%
  Adverse events, NCI category dermatology/skin: 28.6%
  Adverse events, NCI category gastrointestinal: 64.3%
  Adverse events, NCI category hemorrhage/bleeding: 10.7%
  Adverse events, NCI category lymphatics: 25.0%
  Adverse events, NCI category metabolic/laboratory: 73.2%
  Adverse events, NCI category musculoskeletal/soft tissue: 10.7%
  Adverse events, NCI category neurology: 23.2%
  Adverse events, NCI category pain: 58.9%
  Adverse events, NCI category pulmonary/upper respiratory: 17.9%
  Drug-related acute renal failure: 2 (4) No. (%)
  Drug-related elevated creatinine: 1 (2) No. (%)
  Drug-related hypertension: 1 (2) No. (%)
  Drug-related hyperuricemia: 1 (2) No. (%)
  Drug-related increased ALT: 9 (16) No. (%)
  Drug-related increased GGT: 2 (4) No. (%)
  Drug-related increased bilirubin: 2 (4) No. (%)
  Drug-related intrahepatic cholestasis: 1 (2) No. (%)
  Drug-related prolonged QTc interval: 1 (2) No. (%)
  Drug-related thrombocytopenia: 1 (2) No. (%)
  Grade 3 thrombocytopenia, drug- and non-drug-related: 2 patients
  Grade 4 thrombocytopenia, drug- and non-drug-related: 3 patients
  QTc >500 msec: 1 patient
  QTcB increased to grade 2: 4 patients
  QTcF increased to grade 2: 1 patient
[3]; in vivo
  Pleural or pericardial effusions: No cases
[3]; orally BID
  Recommended phase 2 dose based on DLT and MTD: 240 mg
Bcr-Abl F317L
  Sensitivity of mutation in vitro: sensitive
[4]
  Deaths: no deaths occurred
[5]
  Kinase activity: no or limited activity
